Source: US20240415781A1, “PYROPTOSIS-TRIGGERING LIPID NANOPARTICLE” (NEW JERSEY INSTITUTE OF TECHNOLOGY, priority 2023, published 2024)

Test: Ionizable cationic lipid library screen, in vitro delivery of luciferase mRNA (mLuc)
Type: cell-based
Conditions: 18*8 library, LNPs with DOPE, cholesterol, DMG-PEG
From the text: In some embodiments, an ionizable cationic lipid is generally composed of three parts: (1) one or more hydrophilic headgroups containing one or multiple ionizable amines for condensing negatively charged mRNA; (2) one or more hydrophobic hydrocarbon chains capable of promoting self-assembly and phospholipid membrane fusion; and (3) one or more degradable ester linkers connecting the headgroups with the hydrocarbon chains to potentially lower systemic cytotoxicity, as shown in FIG. 9B. In some embodiments, a new library of ionizable cationic lipids is provided, with ionizable amine headgroups derived from different amino alcohols and hydrocarbon lipid chains derived from commercially available lipid acids. In some embodiments, using CALB enzyme-assisted reaction, the hydroxyl groups were reacted with carboxylic acids via one-step high-efficiency esterification, as shown in FIG. 9A. An 18*8 library of lipid-like materials was synthesized by varying amino alcohols and lipid acids. These lipid-like materials with DOPE, cholesterol, and DMG-PEG were fabricated at a molar ratio of 50:10:38.5:1.5, which was a widely used formulation to form LNPs and delivered luciferase encoded mRNA (mLuc) in vitro to generate a luciferase expression heat map of lipid-like materials. […]

rank in luciferase expression screen of lipid-like materials: top-performing
SMILES: CCCCC/C=C\C/C=C\CCCCCCCC(=O)OCCN1CCN(CCOC(=O)CCCCCCC/C=C\C/C=C\CCCCC)CC1 [AA3-DLin]
